Measured values reported in patent EP3892734B1, “SCREENING METHODS AND THERAPEUTIC APPLICATIONS BASED ON BACTERIAL MOTILITY INHIBITION” (Ludwig-Maximilians-Universität München, priority 2020, dated 2021).

Experiment: solubility observed when preparing doses for MTD testing
Format: physicochemical
Details: dosing preparations for MTD testing
Procedure: The active compounds BL1 and BL2, which were chosen to be tested in a preclinical model, were initially tested for toxicity in the mouse model by […] (MTD) testing. The MTD testing (MTD Tox56000 protocol, Eurofins Panlabs) was performed according to international standards, as will be briefly outlined in the following: Three mice were dosed with the compounds at each intended dose. BL1 active compound was prepared in a suitable stock concentration in 5% DMSO, or 5% DMSO, 10% Solutol, 85% PBS (for the 40 and 60 mg/kg/day), and dosed at 10, 30, 40, or 60 mg/kg/day by intraperitoneal injection (125 µl for each dose). BL2 active compound was dosed orally, at 10 mg/kg/day, 30 mg/kg/day, or 60 mg/kg/day, diluted in 5% DMSO, 2.5% carboxy-methyl-cellulose (CMC), in PBS, also at 125 µl per dose per animal. The dosing in each case started with the lowest dose in the three animals, followed by observation for up to 72 h. Subsequently, the next higher dose was administered to a different set of three mice, etc.. Both compounds to be used subsequently for the in vivo therapeutic administration were verified to be non-toxic to mice below an administered dose of 40 mg/kg per day.

Q: Which solubility does the source give for `Cn1c(CSC(=N)N)c(Cl)c(=O)n1-c1ccccc1` [Active 2] here?
A: Its solubility is “very well soluble”.
